Laboratory results as given in patent US20190117547A1, “COSMETIC COMPOSITIONS COMPRISING SCLAREOLIDE” (SYMRISE AG, priority 2016, published 2019).

Assays:
Format in all cases: cell-based
[1] = tested on: CXCL1 (C—X—C motif chemokine ligand 1); experiment: UVB induced gene expression (RTq PCR), CXCL1; details: HaCaT cells, 50 μM Sclareolide, 20 mJ/cm^2 UVB, 24 hours; normalized to HPRT1 (UVB alone 5.4)
Method: (§1) HaCaT cells are seeded into a 12-well plate with 2.0×10^5 cells/well. After incubation over night the test compound (50 μM Sclareolide) is added to the cells and the plate is incubated for two more hours. Then cells are washed with PBS and irradiated with 20 mJ/cm^2 UVB (UVITEC Cambridge, 312 nm). PBS is removed and medium (control and with test compound) added. Cells are incubated for 24 hours. RNA is extracted and purified using the RNeasy kit (Qiagen) according to the manufacturer's instructions. The RNA concentration is determined with a photometer (Eppendorf) and 2 μg are used for reverse transcription, that is performed with the TaqMan® MicroRNACells-to-CT™ Kit (Ambion) like described in the user manual. Quantitative real time PCR is performed using the Applied Biosystems StepOne™ with customized TaqMan® Array Fast Plates with following primers: HPRT1 (hypoxanthine phosphoribosyltransferase 1) as housekeeping gene, EDN1(endothelin 1), CXCL1 (C—X—C motif chemokine ligand 1), IL6 (interleukin 6) and IL8 (C—X—C motif chemokine ligand 8). Target gene transcript levels are normalized to the HPRT1 transcript level and the relative transcript changes are calculated using the RQ=2-ΔΔCt method.

[2] = tested on: Human epidermal melanoma cells A375; experiment: Visible light induced hyperpigmentation in vitro; details: for Inhibition vs visible light induced / melanin: visible light 480 J/cm2
Method: (§2) Human epidermal melanoma cells A375 were cultured in 6-well plates. The cells were exposed to visible light (480 J/cm2) with Hydrosun 750 equipped with KG1 filter. 48 h prior to and past to the irradiation the cells were treated with test compounds in non-cytotoxic concentrations. Melanocytes were lysed in a solution of NaOH. Melanin was quantified by measurement of absorbance at 405 nm and calculation based on a melanin standard curve.

[3] = tested on: Human epidermal melanoma cells A375; experiment: Basal melanin formation in vitro; details: for melanin: basal (no irradiation)
Method: as §2, with “The cells were exposed to visible light (480 J/cm2) with Hydrosun 750 equipped with KG1 filter.” left out

[4] = tested on: genes well-known for the induction of hyperpigmentation; experiment: UVB induced gene expression (RTq PCR), overall statement; details: HaCaT cells, 50 μM Sclareolide, summary in words
Method: as §1

[5] = tested on: IL8 (C—X—C motif chemokine ligand 8); experiment: UVB induced gene expression (RTq PCR), IL8; details: HaCaT cells, 50 μM Sclareolide, 20 mJ/cm^2 UVB, 24 hours; normalized to HPRT1 (UVB alone 17.9)
Method: as §1

[6] = tested on: ex vivo human skin explants; experiment: Melanin formation after visible light irradiation on ex vivo human skin; details: for Inhibition vs Placebo: skin explants, visible light 480 J/cm2; for % of melanin: topical on skin explants, visible light 480 J/cm2, Fontana-Masson stain
Method: The below formulations were applied on ex vivo human skin explants from abdominal surgery of a donor with phototype IV (Fitzpatrick scale). 48 h after the formulations were removed with a cotton pad. Skin explants were exposed to visible light (480 J/cm2) with Hydrosun 750 equipped with KG1 filter. Formulations were reapplied afterwards. 48 h later skin sections were prepared and melanin was stained by Fontana-Masson stain. Quantification of melanin was done by image analysis.

IL6 (interleukin 6) = experiment: UVB induced gene expression (RTq PCR), IL6; details: HaCaT cells, 50 μM Sclareolide, 20 mJ/cm^2 UVB, 24 hours; normalized to HPRT1 (UVB alone 8.4)
Method: as §1

EDN1(endothelin 1) = experiment: UVB induced gene expression (RTq PCR), EDN1; details: HaCaT cells, 50 μM Sclareolide, 20 mJ/cm^2 UVB, 24 hours; normalized to HPRT1 (UVB alone 22.7)
Method: as §1

[7] = 0.05% sclareolide formulation (C)
[8] = 0.2% sclareolide formulation (B)

CC1(C)CCC[C@]2(C)C3CC(=O)O[C@]3(C)CC[C@@H]12 (stereo partly drawn) [sclareolide, (3aR,5aS,9aS,9bR)-deca hydro-3a,6,6,9a-tetramethylnaphtha[2,1-b]furan-2(1H)-one]
RQ CXCL1 [1]: 2.8
Inhibition vs visible light induced ([2]; 3.16 μM sclareolide): 18%
melanin ([2]; 3.16 μM sclareolide): 0.8784 ± 0.0293 µg
Inhibition vs visible light induced ([2]; 10 μM sclareolide): 67%
melanin ([2]; 10 μM sclareolide): 0.6306 ± 0.0675 µg
Inhibition vs visible light induced ([2]; 31.6 μM sclareolide): 70%
melanin ([2]; 31.6 μM sclareolide): 0.6106 ± 0.0658 µg
inhibition of visible light induced hyperpigmentation ([2]; summary in words): significantly inhibits
melanin ([3]; 3.16 μM sclareolide): 0.7775 ± 0.0412 µg
melanin ([3]; 10 μM sclareolide): 0.6554 ± 0.0408 µg
melanin ([3]; 31.6 μM sclareolide): 0.8851 ± 0.0579 µg
effect on basal melanin formation ([3]; summary in words): no effect
inhibition of UVB induced upregulation of genes [4]: inhibits
RQ IL8 [5]: 10.3
Inhibition vs Placebo [6, 7]: 1.2%
% of melanin [6, 7]: 61.33 ± 2.2%
Inhibition vs Placebo [6, 8]: 32.4%
% of melanin [6, 8]: 52.46 ± 2.9%
RQ IL6 (IL6 (interleukin 6)): 5.7
RQ EDN1 (EDN1(endothelin 1)): 11.9
